Test results reported in patent publication US20210045385A1, “PYRIDAZINONE-SUBSTITUTED KETOXIMES AS HERBICIDES” (FMC Corporation, priority 2018, published 2021).

What was measured:
Type in all cases: in vivo
[1] = tested on: ragweed (common ragweed, Ambrosia elatior); experiment: Test A postemergence, visual plant response rating; conditions: for Ragweed plant response rating (0 to 100 scale): 500 g ai/ha, postemergence, 0 is no effect, 100 is complete control; for Ragweed plant response rating: Postemergence, 125 g ai/ha, 0 to 100 scale (0 no effect, 100 complete control)
Method in brief: (§1)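 Formulated in a non-phytotoxic solvent mixture including surfactant, each test chemical was sprayed onto the soil surface after sowing, or onto seedlings 2 to 10 cm high. Roughly 10 days later, plants were compared with untreated controls and rated for injury from 0 (no effect) to 100 (complete control).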

[2] = tested on: barnyardgrass (Echinochloa crus-galli); experiment: Test A postemergence, visual plant response rating; conditions: for Barnyardgrass plant response rating (0 to 100 scale): 500 g ai/ha, postemergence, 0 is no effect, 100 is complete control; for Barnyardgrass plant response rating: Postemergence, 125 g ai/ha, 0 to 100 scale (0 no effect, 100 complete control)
Method in brief: as §1

corn (Zea mays) = experiment: Test A postemergence, visual plant response rating; conditions: for Corn plant response rating (0 to 100 scale): 500 g ai/ha, postemergence, 0 is no effect, 100 is complete control; for Corn plant response rating: Postemergence, 125 g ai/ha, 0 to 100 scale (0 no effect, 100 complete control)
Method in brief: as §1

[3] = tested on: blackgrass (Alopecurus myosuroides); experiment: Test A postemergence, visual plant response rating; conditions: for Blackgrass plant response rating (0 to 100 scale): 500 g ai/ha, postemergence, 0 is no effect, 100 is complete control; for Blackgrass plant response rating: Postemergence, 125 g ai/ha, 0 to 100 scale (0 no effect, 100 complete control)
Method in brief: as §1

[4] = tested on: Italian ryegrass (Lolium multiflorum); experiment: Test A postemergence, visual plant response rating; conditions: for Ryegrass, Italian plant response rating (0 to 100 scale): 500 g ai/ha, postemergence, 0 is no effect, 100 is complete control; for Ryegrass, Italian plant response rating: Postemergence, 125 g ai/ha, 0 to 100 scale (0 no effect, 100 complete control)
Method in brief: as §1

[5] = tested on: wheat (Triticum aestivum); experiment: Test A postemergence, visual plant response rating; conditions: for Wheat plant response rating (0 to 100 scale): 500 g ai/ha, postemergence, 0 is no effect, 100 is complete control; for Wheat plant response rating: Postemergence, 125 g ai/ha, 0 to 100 scale (0 no effect, 100 complete control)
Method in brief: as §1

[6] = tested on: galium (catchweed bedstraw, Galium aparine); experiment: Test A postemergence, visual plant response rating; conditions: for Galium plant response rating (0 to 100 scale): 500 g ai/ha, postemergence, 0 is no effect, 100 is complete control; for Galium plant response rating: Postemergence, 125 g ai/ha, 0 to 100 scale (0 no effect, 100 complete control)
Method in brief: as §1

[7] = tested on: foxtail, giant (giant foxtail, Setaria faberii); experiment: Test A postemergence, visual plant response rating; conditions: for Foxtail, Giant plant response rating (0 to 100 scale): 500 g ai/ha, postemergence, 0 is no effect, 100 is complete control; for Foxtail, Giant plant response rating: Postemergence, 125 g ai/ha, 0 to 100 scale (0 no effect, 100 complete control)
Method in brief: as §1

[8] = tested on: pigweed (Amaranthus retroflexus); experiment: Test A postemergence, visual plant response rating; conditions: for Pigweed plant response rating (0 to 100 scale): 500 g ai/ha, postemergence, 0 is no effect, 100 is complete control; for Pigweed plant response rating: Postemergence, 125 g ai/ha, 0 to 100 scale (0 no effect, 100 complete control)
Method in brief: as §1

kochia (Kochia scoparia) [9] = experiment: Test A postemergence, visual plant response rating; conditions: for Kochia plant response rating (0 to 100 scale): 500 g ai/ha, postemergence, 0 is no effect, 100 is complete control; for Kochia plant response rating: Postemergence, 125 g ai/ha, 0 to 100 scale (0 no effect, 100 complete control)
Method in brief: as §1

[10] = tested on: ragweed (common ragweed, Ambrosia elatior); experiment: Test A preemergence, visual plant response rating; conditions: for Ragweed plant response rating (0 to 100 scale): approx. 10 days
Method in brief: as §1

[11] = tested on: barnyardgrass (Echinochloa crus-galli); experiment: Test A preemergence, visual plant response rating; conditions: for Barnyardgrass plant response rating (0 to 100 scale): approx. 10 days
Method in brief: as §1

[12] = tested on: Italian ryegrass (Lolium multiflorum); experiment: Test A preemergence, visual plant response rating; conditions: for Ryegrass, Italian plant response rating (0 to 100 scale): approx. 10 days
Method in brief: as §1

[13] = tested on: foxtail, giant (giant foxtail, Setaria faberii); experiment: Test A preemergence, visual plant response rating; conditions: for Foxtail, Giant plant response rating (0 to 100 scale): approx. 10 days
Method in brief: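 Greenhouse pot test in loam–sand soil mix: compound in a surfactant-containing non-phytotoxic solvent applied preemergence (directed soil spray) or postemergence (one- to two-leaf plants, 2–10 cm). Injury scored visually after ~10 days, 0–100.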

[14] = tested on: pigweed (Amaranthus retroflexus); experiment: Test A preemergence, visual plant response rating; conditions: for Pigweed plant response rating (0 to 100 scale): approx. 10 days
Method in brief: as §1

kochia (Kochia scoparia) [15] = experiment: Test A preemergence, visual plant response rating; conditions: for Kochia plant response rating (0 to 100 scale): approx. 10 days
Method in brief: as §1

[16] = tested on: sedge, umbrella (small-flower umbrella sedge, Cyperus difformis); experiment: Test B flooded paddy test, visual plant response rating; conditions: 250 g ai/ha, Flood, applied to paddy water, 2-leaf stage, evaluated after 13 to 15 days
Method in brief: (§2)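 Rice, umbrella sedge, ducksalad and barnyardgrass grown to 2-leaf stage; pots flooded 3 cm above soil and compound applied directly to paddy water, depth maintained.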

[17] = tested on: barnyardgrass (Echinochloa crus-galli); experiment: as above; conditions: 250 g ai/ha, Flood, applied to paddy water, 2-leaf stage, evaluated after 13 to 15 days
Method in brief: as §2

[18] = tested on: ducksalad (Heteranhera limosa); experiment: as above; conditions: 250 g ai/ha, Flood, applied to paddy water, 2-leaf stage, evaluated after 13 to 15 days
Method in brief: as §2

rice (Oryza sativa) = experiment: as above; conditions: 250 g ai/ha, Flood, applied to paddy water, 2-leaf stage, evaluated after 13 to 15 days
Method in brief: as §2

[19] = 125 g ai/ha, preemergence, 0 to 100 scale, 0 no effect, 100 complete control

Row | Compound | Ragweed plant response rating (0 to 100 scale) [1] | Ragweed plant response rating [1] | Barnyardgrass plant response rating (0 to 100 scale) [2] | Barnyardgrass plant response rating [2] | Corn plant response rating (0 to 100 scale) (corn (Zea mays)) | Corn plant response rating (corn (Zea mays)) | Blackgrass plant response rating (0 to 100 scale) [3] | Blackgrass plant response rating [3] | Ryegrass, Italian plant response rating (0 to 100 scale) [4] | Ryegrass, Italian plant response rating [4] | Wheat plant response rating (0 to 100 scale) [5] | Wheat plant response rating [5] | Galium plant response rating (0 to 100 scale) [6] | Galium plant response rating [6] | Foxtail, Giant plant response rating (0 to 100 scale) [7] | Foxtail, Giant plant response rating [7] | Pigweed plant response rating (0 to 100 scale) [8] | Pigweed plant response rating [8] | Kochia plant response rating (0 to 100 scale) (kochia (Kochia scoparia) [9]) | Kochia plant response rating (kochia (Kochia scoparia) [9]) | further results
1 | C=CCn1nc(C)c(O)c(C(=NOC)c2cccc(Cl)c2)c1=O (mixture of isomers) [Compound 5] | 0 | 0 | 30 | 10 | 0 | 0 | 50 | 10 | 30 | 0 | 0 | 0 | 0 | 0 | 10 | 0 | 0 | 0 | 0 | 0 | Ragweed plant response rating (0 to 100 scale) ([10]; 125 g ai/ha Preemergence): 0; Ragweed plant response rating (0 to 100 scale) ([10]; 500 g ai/ha Preemergence): 0; Barnyardgrass plant response rating (0 to 100 scale) ([11]; 125 g ai/ha Preemergence): 20; Barnyardgrass plant response rating (0 to 100 scale) ([11]; 500 g ai/ha Preemergence): 70; Ryegrass, Italian plant response rating (0 to 100 scale) ([12]; 125 g ai/ha Preemergence): 0; Ryegrass, Italian plant response rating (0 to 100 scale) ([12]; 500 g ai/ha Preemergence): 20; Foxtail, Giant plant response rating (0 to 100 scale) ([13]; 125 g ai/ha Preemergence): 0; Foxtail, Giant plant response rating (0 to 100 scale) ([13]; 500 g ai/ha Preemergence): 10; Pigweed plant response rating (0 to 100 scale) ([14]; 125 g ai/ha Preemergence): 0; Pigweed plant response rating (0 to 100 scale) ([14]; 500 g ai/ha Preemergence): 0; Kochia plant response rating (0 to 100 scale) (kochia (Kochia scoparia) [15]; 125 g ai/ha Preemergence): 0; Kochia plant response rating (0 to 100 scale) (kochia (Kochia scoparia) [15]; 500 g ai/ha Preemergence): 0; Plant response rating, Sedge, Umbrella (0 to 100 scale, 0 is no effect, 100 is complete control) [16]: 0; Plant response rating, Barnyardgrass (0 to 100 scale, 0 is no effect, 100 is complete control) [17]: 0; Plant response rating, Ducksalad (0 to 100 scale, 0 is no effect, 100 is complete control) [18]: 0; Plant response rating, Rice (0 to 100 scale, 0 is no effect, 100 is complete control) (rice (Oryza sativa)): 0
2 | CON=C(c1c(OC(C)=O)c(C)nn(C)c1=O)c1cccc2ccccc12 [Compound 48] | 90 | 80 | 30 | 20 | 80 | 10 | 90 | 70 | 80 | 70 | 10 | 0 | 90 | 80 | 80 | 30 | 90 | 80 | 80 | 70 | Ragweed plant response rating [10, 19]: 100; Ragweed plant response rating (0 to 100 scale) ([10]; 500 g ai/ha Preemergence): 100; Barnyardgrass plant response rating [11, 19]: 20; Barnyardgrass plant response rating (0 to 100 scale) ([11]; 500 g ai/ha Preemergence): 70; Ryegrass, Italian plant response rating [12, 19]: 40; Ryegrass, Italian plant response rating (0 to 100 scale) ([12]; 500 g ai/ha Preemergence): 70; Foxtail, Giant plant response rating [13, 19]: 90; Foxtail, Giant plant response rating (0 to 100 scale) ([13]; 500 g ai/ha Preemergence): 90; Pigweed plant response rating [14, 19]: 30; Pigweed plant response rating (0 to 100 scale) ([14]; 500 g ai/ha Preemergence): 100; Kochia plant response rating (kochia (Kochia scoparia) [15]; [19]): 40; Kochia plant response rating (0 to 100 scale) (kochia (Kochia scoparia) [15]; 500 g ai/ha Preemergence): 100; Plant response rating, Sedge, Umbrella (0 to 100 scale, 0 is no effect, 100 is complete control) [16]: 0; Plant response rating, Barnyardgrass (0 to 100 scale, 0 is no effect, 100 is complete control) [17]: 0; Plant response rating, Ducksalad (0 to 100 scale, 0 is no effect, 100 is complete control) [18]: 0; Plant response rating, Rice (0 to 100 scale, 0 is no effect, 100 is complete control) (rice (Oryza sativa)): 0
